From patent US20080275014A1, “Clobetasol Propionate Shampoos for the Treatment of Seborrheic Dermatitis of the Scalp” (Galderma S.A., priority 2004, published 2008)

Assay: Clobetasol plasma levels
Type: in vivo, human
Conditions: 45 subject plasma samples; after topical scalp treatment
Method: This study was conducted as a single center, randomized, investigator-masked and competitor comparison of 4 parallel groups involving Psoriasis and Scalp seborrheic dermatitis subjects. The aim of the trial was to evaluate the opthalmological irritation potential and the potential to suppress the HPA axis of Clobetasol Propionate Shampoo, 0.05%. During 4 weeks, psoriasis subjects had to treat their scalp once a day with Clobetasol Shampoo, 0.05% or with Dermoval/Temovate gel. Scalp seborrheic dermatitis subjects had to treat their scalp twice a week with Clobetasol Shampoo, 0.05% or on a day with Dermoval/Temovate gel.
Each subjects was submitted at each visit (each week during 4 weeks) to the following tests, ocular examination, HPA-axis function, local and general safety. First, opthalmological examination, measurement of intraocular pressure, detection of ocular subjective symptoms such as burning sensation, measurement of far and near visual acuity. Second, they were sampled for serum cortisol levels and were submitted to the Cosyntropin (Synacthene) stimulation assay. Cutaneous safety (skin atrophy using B-Scan ultra-sound and telangiectasis) and adverse events were also recorded. Systemic safety was also assessed by routine laboratory test and detection of Clobetasol Plasma levels, cutaneous safety, and DSS at the end of the study.

amounts found in subject plasma samples: No detectable amounts
SMILES: CCC(=O)O[C@]1(C(=O)CCl)[C@@H](C)C[C@H]2[C@@H]3CCC4=CC(=O)C=C[C@]4(C)[C@@]3(F)[C@@H](O)C[C@@]21C [Clobatasol 17-propionate, clobetasol 17-propionate]
